# According to paper PMC3646678, “Sodium-calcium exchangers in rat trigeminal ganglion neurons” (Molecular Pain, 2013):
# pIC50: −log10 of the molar value.
# Test system: T1, NCX1 (Na+-Ca2+ exchanger)
# T1 construct: gene Slc8a1
# Test: fura-2 Ca2+ influx by reverse NCX activity (Li+ for Na+ substitution) in native rat TG neurons
# Type: cell-based
row,pIC50,Structure (SMILES)
1,5.51,N=C(N)SCCc1ccc(OCc2ccc([N+](=O)[O-])cc2)cc1 [KB-R7943]
2,7.52,"CCOc1ccc(Oc2ccc(OCc3cc(F)ccc3F)cc2)c(N)c1 [SEA0400, 2-[4-[(2,5-difluorophenyl)methoxy]phenoxy]-5-ethoxyaniline]"
3,6.29,CCOC(=O)C1CSC(Cc2ccc(OCc3ccc([N+](=O)[O-])cc3)cc2)N1 (stereo not drawn) [SN-6]
